Earlier results, collected in PMC6835763, “Influence of Short Cationic Lipopeptides with Fatty Acids of Different Chain Lengths on Bacterial Biofilms Formed on Polystyrene and Hydrogel Surfaces” (Pharmaceutics, 2019).

Key:
PM biofilm = conditions: cited from earlier work; for concentration eradicating the PM biofilm: mature PM biofilms
Description: (§1) They were ineffective against PM, which was difficult to eradicate with peptides (and antibiotics) in previously performed studies. PM can cause infections of the urinary tract, skin, subcutaneous tissue, and wounds. PM is known as a biofilm former, and an evident increase of PM resistance to broad-spectrum fluoroquinolones and cephalosporins has been observed. In the previous study, mature PM b ...

SA biofilms = system: SA biofilms; design: method as in PMID 24779193; conditions: cited from earlier work
EC biofilm = conditions: cited from earlier work
Description: as §1

PA biofilm = conditions: cited from earlier work
Description: as §1

Compound	susceptibility of mature PM biofilms (PM biofilm)	concentration eradicating the PM biofilm (PM biofilm) [µg/mL]	susceptibility of SA biofilms (SA biofilms)	other results
omiganan	resistant	–	–	–
C16-KK-NH2 [Lipopeptide C16-KK-NH2]	–	512	–	–
O=C(O)c1cn(C2CC2)c2cc(N3CCNCC3)c(F)cc2c1=O [ciprofloxacin]	resistant	–	resistant	effective concentration against EC biofilm (EC biofilm): 1 µg/mL; concentration eliminating PA biofilm (PA biofilm; 3-day-old structures): 4 µg/mL
polymyxin B	–	512	–	–
O=C(N[C@H](CO)[C@H](O)c1ccc([N+](=O)[O-])cc1)C(Cl)Cl [chloramphenicol]	–	–	resistant	activity against EC biofilms (EC biofilm): rather weak activity; activity against PA biofilm (PA biofilm): weak antibiofilm agents
pexiganan	resistant	–	–	–
